This series in a line: Relative Sensitivity in Aqueous Solution System (color formation with H2O2, peroxidase and 1,7-dihydroxynaphthalene). Particulars: relative steepness of calibration curve; reference (C1) = 1.0; pH 6.0; 37° C., 10 min; 515 nm. On the procedure:
The following color-forming composition solutions were prepared using, as coupler, 1,7-dihydroxynaphthalene and, as chromogen, the compounds (1), (6), (7), (18), (C1) and (C2), respectively.
1,7-Dihydroxynaphthalene: 50 μmol
Phosphate buffer: added to adjust to pH 6.0
The color-forming solution having the above composition (5 ml.) was incubated at 37° C. for 3 min., and subsequently 50 μl. of aqueous H2 O2 solution (four levels from 1 mmol to 6 mmol and blank, respectively) was dropped into the incubated color-forming solution. The solution was further incubated at 37° C. for 10 min., and immediately subjected to transmissive spectroscopy at the wavelength of 515 nm for measurement of optical density of the formed color. The relationships between the H2 O2 concentrations and the measured optical density values on the formed color (the value was calculated by subtracting an optical density of the color formed in the blank solution from an optical density of the color formed in the aqueous H2 O2 incorporated solution) were plotted on an orthgonal axes graph to determine the steepness of slope of the calibration curve. The relative sensitivity of each compound is set forth in Table 6 in terms of a relative steepness value based on the reference steepness obtained in the measurement on the solution using the compound (C1). In Table 6, the reference steepness is given as 1.0.

Consider `Cn1c(-c2ccccc2)c(N)c(=O)n1C` [(C2), reference compound], for which the “Relative Sensitivity (aq. sol.)” value was found to be 0.77.

In the case of `Cn1c(-c2ccccc2)c(N)c(=O)n1-c1ccccc1` [(18)], the “Relative Sensitivity (aq. sol.)” value stood at 0.82.

Regarding `Cc1c(N)c(=O)n(-c2cccc(Cl)c2)n1C` [(1)], the “Relative Sensitivity (aq. sol.)” value is 0.99.

With `Cc1c(N)c(=O)n(-c2c(Cl)cc(Cl)cc2Cl)n1C` [Compound (6)], the “Relative Sensitivity (aq. sol.)” value is on record as 0.70.

As to `Cc1c(N)c(=O)n(-c2ccccc2)n1C` [Compound (C1), 4-amino-2,3-dimethyl-1-phenyl-3-pyrazolin-5-one, reference compound], the “Relative Sensitivity (aq. sol.)” value worked out at 1.0.

These data come from patent publication US4578245A, “Multilayer analytical element” (Fuji Photo Film Co., Ltd., priority 1982, dated 1986).
